# Results: US12247019B2 (Centaurus Therapeutics, priority 2018, dated 2025)
# Target: T1, Des1 (Homo sapiens, UniProt O15121)
# T1 sequence (O15121 1-323): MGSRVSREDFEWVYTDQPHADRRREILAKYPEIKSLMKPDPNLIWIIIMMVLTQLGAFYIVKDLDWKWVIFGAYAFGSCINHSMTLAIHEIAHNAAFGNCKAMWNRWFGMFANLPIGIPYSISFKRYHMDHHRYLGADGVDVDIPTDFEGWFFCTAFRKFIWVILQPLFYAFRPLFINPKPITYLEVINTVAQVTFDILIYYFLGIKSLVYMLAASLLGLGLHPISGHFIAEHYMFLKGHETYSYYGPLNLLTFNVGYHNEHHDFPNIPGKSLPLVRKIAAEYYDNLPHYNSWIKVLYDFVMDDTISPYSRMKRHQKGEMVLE
# Assay: Jurkat T cell measurement of conversion of dihydroceramide to ceramide (Des1 activity, LC-MS/MS of NBD-C6-ceramide)
# Assay type: cell-based
# Design: endogenous in cells; host or cells: Jurkat clone E6-1
# Conditions: Jurkat clone E6-1 cells, 10 μM NBD-C6-dihydroceramide, 3 hours at 37° C.; for inhibition at 0.5 µM: 0.5 uM compound, read-out: Des1 % Inhib (0.5 uM); for IC50: read-out: Des1 IC50
# Method: Jurkat T Cell Measurement of Conversion of Dihydroceramide to Ceramide
# Jurkat clone E6-1 cells were grown and then seeded at 10^6 cells/mL in a 96-well plate (400 μL in each well. The cells were administered 100 μL of cell culture media containing 50-μM NBD-C6-dihydroceramide (Des1 substrate), affording a final concentration of substrate of 10 μM. The cells were incubated with substrate at 4° C. for 30 minutes. Following the incubation at 4° C., the cell suspension was centrifuged at 1200 rpm for 3 minutes, and the cell pellet is resuspended in 400 μL of fresh media containing various concentrations of either fenretinide (known Des1 inhibitor control compound) or test article. The final concentrations of control compound and test compounds were tested in a range from 0-10 μM. The cells and compounds were incubated at 37° C. for 3 hours. Following the 3-hour incubation, the plate was centrifuged at 2500 g for 3 minutes at 4° C., followed by collection and transfer of 200 μL of the supernatant to a new 96-well plate with 300 μL of methanol an containing appropriate internal standards for liquid chromatography/tandem mass spectroscopy (LC/MS/MS) analysis (internal standard: 500 nM labetalol and 100 nM alprazolam). The samples were vortexed for 2 minutes followed by centrifugation at 3,220 g for 20 minutes. Following centrifugation, 200 μL of the supernatant was transferred to a new 96-well plate for LC-MS/MS analysis to determine the amount of NBD-C6-ceramide (Des1 product) produced. The assay was typically performed in duplicate. A reduction of at least 30% compared to vehicle control (0 μM test article) is indicative of an active compound, and a reduction of 75% compared to vehicle control is preferred.
inhibition at 0.5 µM,IC50,Structure (SMILES)
89.6%,42 nM,"O=C(Nc1ccc(O)cn1)N1CCC(c2ccccc2)CC1 [Example 1, N-(5-Hydroxypyridin-2-yl)-4-phenylpiperidine-1-carboxamide]"
91.7%,25 nM,"O=C(Nc1ccc(O)cn1)N1CCC(c2ccc(F)cc2)CC1 [Example 2, N-[5-[Hydroxy]pyridin-2-yl]-4-(4-fluorophenyl)piperidine-1-carboxamide]"
87.9%,53 nM,"O=C(Nc1ccc(O)cn1)N1CCN(c2ccccc2)CC1 [Example 3, N-(5-Hydroxypyridin-2-yl)-4-phenylpiperazine-1-carboxamide]"
94.3%,23 nM,"O=C(Nc1ccc(O)cn1)N1CCC(c2ccc(Cl)cc2)CC1 [Example 4, 4-(4-Chlorophenyl)-N-(5-hydroxypyridin-2-yl)piperidine-1-carboxamide]"
91.5%,32 to 51 nM,"O=C(Nc1ccc(O)cn1)N1CCN(c2ccc(F)cc2)CC1 [Example 5, 4-(4-Fluorophenyl)-N-(5-hydroxypyridin-2-yl)piperazine-1-carboxamide]"
81.8%,69 nM,"COc1ccc(C2CCN(C(=O)Nc3ccc(O)cn3)CC2)cc1 [Example 6, N-(5-Hydroxypyridin-2-yl)-4-(4-methoxyphenyl)piperidine-1-carboxamide]"
94%,26 nM,O=C(Nc1ccc(O)cn1)N1CCC(c2cccc(Cl)c2)CC1 [Example 7]
94.9%,13 nM,"O=C(Nc1ccc(O)cn1)N1CCC(Cc2ccccc2)CC1 [Example 8, 4-Benzyl-N-(5-hydroxypyridin-2-yl)piperidine-1-carboxamide]"
93.8%,17 nM,"CC(C)C1CCN(C(=O)Nc2ccc(O)cn2)CC1 [Example 9, N-(5-Hydroxypyridin-2-yl)-4-(propan-2-yl)piperidine-1-carboxamide]"
15%,–,"O=C(Nc1ccc(O)cn1)N1CCCCC1 [Example 10, N-(5-Hydroxypyridin-2-yl)piperidine-1-carboxamide]"
38.5%,–,"O=C(Nc1ccc(O)cn1)N1CCCCCC1 [Example 11, N-(5-hydroxypyridin-2-yl)azepane-1-carboxamide]"
90.5%,54 nM,"O=C(Nc1ccc(O)cn1)N1CCN(c2ccccc2F)CC1 [Example 12, 4-(2-fluorophenyl)-N-(5-hydroxypyridin-2-yl)piperazine-1-carboxamide]"
93%,9 to 33 nM,"O=C(Nc1ccc(O)cn1)N1CCN(c2ccc(F)cc2F)CC1 [Example 13, 4-(2,4-difluorophenyl)-N-(5-hydroxypyridin-2-yl)piperazine-1-carboxamide]"
95.9%,3 nM,"O=C(Nc1ccc(O)cn1)N1CCN(c2ccc(C(F)(F)F)cc2)CC1 [Example 14, N-(5-Hydroxypyridin-2-yl)-4-[4-(trifluoromethyl)phenyl]piperazine-1-carboxamide]"
81.8%,110 nM,"COc1ccc(N2CCN(C(=O)Nc3ccc(O)cn3)CC2)cc1 [Example 15, N-(5-hydroxypyridin-2-yl)-4-(4-methoxyphenyl)piperazine-1-carboxamide]"
31.4%,–,"O=C(Nc1ccc(O)cn1)N1CCN(c2ncccn2)CC1 [Example 16, N-(5-hydroxypyridin-2-yl)-4-(pyrimidin-2-yl)piperazine-1-carboxamide]"
76.9%,–,"O=C(Nc1ccc(O)cn1)N1CCN(c2ccccn2)CC1 [Example 17, N-(5-hydroxypyridin-2-yl)-4-(pyridin-2-yl) piperazine-1-carboxamide]"

inhibition at 0.5 µM,IC50,Structure (SMILES)
96.6%,4 nM,"O=C(Nc1ccc(O)cn1)N1CCN(c2ccc(C(F)(F)F)cn2)CC1 [Example 18, N-(5-hydroxypyridin-2-yl)-4-[5-(trifluoromethyl)pyridin-2-yl]piperazine-1-carboxamide]"
76.7%,–,"O=C(Nc1ccc(O)cn1)N[C@H]1CC[C@H](c2ccccc2)CC1 [Example 19, 3-(5-hydroxypyridin-2-yl)-1-[(1r,4r)-4-phenylcyclohexyl]urea]"
19.6%,–,"O=C(Nc1ccc(O)cn1)NC1CCOCC1 [Example 20, 3-(5-Hydroxypyridin-2-yl)-1-(oxan-4-yl)urea]"
69.3%,–,"O=C(Nc1ccc(O)cn1)NC1CCCCC1 [Example 21, 1-cyclohexyl-3-(5-hydroxypyridin-2-yl)urea]"
–,14 nM,"O=C(Nc1ccc(O)cn1)N1CCN(c2ccc(Cl)cn2)CC1 [Example 22, 4-(5-chloropyridin-2-yl)-N-(5-hydroxypyridin-2-yl)piperazine-1-carboxamide]"
–,10 nM,"O=C(Nc1ccc(O)cn1)N1CCN(c2ccc(Cl)cc2Cl)CC1 [Example 23, 4-(2,4-dichlorophenyl)-N-(5-hydroxypyridin-2-yl)piperazine-1-carboxamide]"
–,64 to 94 nM,"O=C(Nc1ccc(O)cn1)N1CCN(c2ccc(F)cn2)CC1 [Example 24, 4-(5-fluoropyridin-2-yl)-N-(5-hydroxypyridin-2-yl)piperazine-1-carboxamide]"
–,9 nM,"O=C(Nc1ccc(O)cn1)N1CCN(c2ccc(F)c(F)c2)CC1 [Example 25, 4-(3,4-difluorophenyl)-N-(5-hydroxypyridin-2-yl)piperazine-1-carboxamide]"
–,12 nM,"O=C(Nc1ccc(O)cn1)N1CCN(c2cc(F)cc(F)c2)CC1 [Example 26, 4-(3,5-difluorophenyl)-N-(5-hydroxypyridin-2-yl)piperazine-1-carboxamide]"
–,11 nM,"N#Cc1ccc(N2CCN(C(=O)Nc3ccc(O)cn3)CC2)cc1 [Example 27, 4-(4-cyanophenyl)-N-(5-hydroxypyridin-2-yl)piperazine-1-carboxamide]"
57.8%,–,"O=C(Nc1ccc(O)cc1)N1CCN(c2ccc(F)cc2F)CC1 [Example 28, 4-(2,4-difluorophenyl)-N-(4-hydroxyphenyl)piperazine-1-carboxamide]"
58.6%,–,"O=C(Nc1ccc(O)cc1)N1CCN(c2ccc(F)cc2)CC1 [Example 29, 4-(4-fluorophenyl)-N-(4-hydroxyphenyl)piperazine-1-carboxamide]"
89.7%,150 nM,"O=C(Nc1ccc(O)cc1)N1CCN(c2ccc(C(F)(F)F)cc2)CC1 [Example 30, N-(4-hydroxyphenyl)-4-[4-(trifluoromethyl)phenyl]piperazine-1-carboxamide]"
–,340 nM,"O=C(Nc1ccc(O)cc1)N1CCN(c2ccc(C(F)(F)F)cn2)CC1 [Example 31, N-(4-hydroxyphenyl)-4-[5-(trifluoromethyl)pyridin-2-yl]piperazine-1-carboxamide]"
–,180 nM,"O=C(Nc1ccc(O)cn1)NC1CCN(c2ccccc2)CC1 [Example 32, 3-(5-hydroxypyridin-2-yl)-1-(1-phenylpiperidin-4-yl)urea]"
93.1%,7 nM,"O=C(Nc1ccc(O)cn1)N1CCN(c2cc(C(F)(F)F)ccn2)CC1 [Example 33, N-(5-hydroxypyridin-2-yl)-4-[4-(trifluoromethyl)pyridin-2-yl]piperazine-1-carboxamide]"
85.4%,–,"N#Cc1ccc(N2CCN(C(=O)Nc3ccc(O)cn3)CC2)nc1 [Example 34, 4-(5-cyanopyridin-2-yl)-N-(5-hydroxypyridin-2-yl)piperazine-1-carboxamide]"
